“Also recorded” adds a separate entry of the source.
Tests used:
Format in all cases: cell-based, rat
[1] = system: CaMKII; experiment: CaMKII activity in extracts of treated hippocampal slice cultures
Description: (§1) Organotypic cultures of rat hippocampal slices were prepared from 20-30 day old Wistar rats and cultured with the interface method as described previously (Stoppini, et al. 1991; Bahr, et al. 1995; Zhongrin, et al. 2000). The rats were anesthetized with ketamine (100 mg/kg body weight) and decapitated and the hippocampi were dissected out and sliced into 400 um coronal sections by a McIllwain tissue chopper. Select slices with uninterrupted bright transparent neuronal layers were plated, 1-3 slices/filter, onto Millicell CM filters (Millipore, Bedford, Mass.). For the first 2 days in vitro (DIV) cultures were maintained in 25% horse serum, 50% Basal Media-Eagle (BEM), 25% Eagle's Balanced Salt Solution (EBSS), 25 mM HEPES, 1 mM glutamine, 28 mM glucose, pH 7.2, at 32° C. in a 5% CO2 humidified atmosphere. The slice cultures were then switched to 25% horse serum, 50% BEM and EBSS modified so that the potassium concentration was 2.66 mM, for another 5 DIV. After 7 DIV, the cultures were maintained in physiological potassium containing 5% horse serum medium at 35° C. for at least 20 days before any treatment was applied. When the slices were treated, the reagents were applied into the culture medium. At different time points, the slices collected with a brush were washed twice in homogenizing buffer (50 mM HEPES, pH 7.0, 10 mM β-merceptoethanol [BME], 1 mM EDTA, 1 mM EGTA, 0.1 mM phenylmethyl sulfonyl fluoride [PMSF], 2.0 mM benzamidine and 2.0 μg/ml each of aprotinin, leupeptin and pepstatin) and homogenized at 4° C. using a Teflon-glass homogenizer. The homogenate was then divided into two parts, one was centrifuged at 16000×g for 15 min and the supernatant was used to assay activities of PP-2A and PP-1. The rest of the homogenate was diluted 1:1 with a phosphatase inhibitor cocktail (20 mM β-glycerophosphate, 2 mM Na3VO4 and 100 mM NaF, pH 7.0) and either used for Western blots or centrifuged at 16000×g for 15 min and the resulting supernatant used to determine the kinase activities.
(§2) CaMKII activity was measured in 25 μl of buffer containing 50 mM HEPES, pH 7.5, 10 mM MgCl2, 2.0 mM CaCl2, 10 mM BME, 10 μg/ml calmodulin (CaM), 20 μM syntide (Sigma, St Louis Mo., USA), 0.06 mg/ml slice extract and 200 μM [γ^32P]ATP. The reaction was initiated by adding [γ32p] ATP. After incubation for 10 min at 30° C., 10 μl reaction mixture was removed and spotted on to phosphocellulose membrane. The membrane was then washed five times in 1% phosphoric acid to remove non-protein incorporated ^32P, dried and counted by Cerenkov radiation. The activity of PKA was determined as above except the reaction mixture contained 70 mM NaHPO4, pH 6.8, 14 mM MgCl2, 1.4 mM EDTA, 30 μM malantide (Sigma, St Louis, Mo., USA), 200 μM [γ^32p] ATP and 0.06 mg/ml slice extract.

[2] = system: tau; experiment: Tau phosphorylation by radioimmuno-dot-blots and 125I-Western blots of slice homogenates
Description: as §1, with “The” for “Organotypic cultures of rat hippocampal slices were prepared from 20-30 day old Wistar rats and cultured with the interface method as described previously (Stoppini, et al. 1991; Bahr, et al. 1995; Zhongrin, et al. 2000). The”, “For the first 2 days in vitro (DIV) cultures were maintained in 25% horse serum, 50% Basal Media-Eagle (BEM), 25% Eagle's Balanced Salt Solution (EBSS), 25 mM HEPES, 1 mM glutamine, 28 mM glucose, pH 7.2, at 32° C. in a 5% CO2 humidified atmosphere. The slice cultures were then switched to 25% horse serum, 50% BEM and EBSS modified so that the potassium concentration was 2.66 mM, for another 5 DIV.” left out
Triplicate samples of each homogenate were applied to nitrocellulose membrane (Schleicher and Schuell, Keene, N.H.) and dried at 37° C.

[3] = system: PKA; experiment: PKA activity in extracts of treated hippocampal slice cultures
Description: as §1, §2

[4] = system: pNF-H/M; experiment: Immunohistochemical staining of neurofilaments (pNF-H/M) in cultured hippocampal slices; details: 100 nM OA 24 h
Description: (§3) Organotypic cultures of rat hippocampal slices were prepared from 20-30 day old Wistar rats and cultured with the interface method as described previously (Stoppini, et al. 1991; Bahr, et al. 1995; Zhongrin, et al. 2000). The rats were anesthetized with ketamine (100 mg/kg body weight) and decapitated and the hippocampi were dissected out and sliced into 400 um coronal sections by a McIllwain tissue chopper. Select slices with uninterrupted bright transparent neuronal layers were plated, 1-3 slices/filter, onto Millicell CM filters (Millipore, Bedford, Mass.). For the first 2 days in vitro (DIV) cultures were maintained in 25% horse serum, 50% Basal Media-Eagle (BEM), 25% Eagle's Balanced Salt Solution (EBSS), 25 mM HEPES, 1 mM glutamine, 28 mM glucose, pH 7.2, at 32° C. in a 5% CO2 humidified atmosphere. The slice cultures were then switched to 25% horse serum, 50% BEM and EBSS modified so that the potassium concentration was 2.66 mM, for another 5 DIV. […]
After different treatments some of the hippocampal slices were fixed in periodate/lysine/paraformaldehyde solution (Mclean, et al. 1974) at 33° C. for 5 h and then kept in 1% Triton-x-100 in PBS (pH 7.4) for 72 h at room temperature to improve the penetration of the antibodies. […] Peroxidase was detected using 0.05% diaminobenzidine (DAB) and H2O2 (0.01%) for 10 min.

[5] = system: GSK-3; experiment: GSK-3 activity in extracts of treated hippocampal slice cultures
Description: as §3, with “DIV. After 7 DIV, the cultures were maintained in physiological potassium containing 5% horse serum medium at 35° C. for at least 20 days before any treatment was applied. When the slices were treated, the reagents were applied into the culture medium.” for “DIV.”

[6] = 100 nM OA, 10 μM Memantine, 24 h
[7] = 100 nM OA 24 h, then 10 μM Memantine 24 h
[8] = Memantine in OA-treated cultures

## CC12CC3CC(C)(C1)CC(N)(C3)C2 [Memantine, 1-amino-3,5-dimethyl adamantane]
[1]; 100 nM OA and 1, 10 or 30 μM Memantine, 3-48 h (FIG. 2b), p<0.02
  restoration of OA-stimulated CaMKII activity: restored the OA-stimulated CaMKII activity to normal level
[1]; 100 nM OA plus 10 μM Memantine 24 h, or OA 24 h, wash, then Memantine 24 h
  restoration of CaMKII activity: Restoration of CaMKII activity; also recorded: almost completely restored; also recorded: restored the activities of both PP-2A and CaMKII
[1]; [6]
  restoration of OA-stimulated CaMKII activity: restored the OA-induced changes in the activities of PP-2A, CaMKII and PKA to normal levels; also recorded: practically completely restored
[1]; Memantine 10 to 30 μM, or 24 h to 48 h
  additional effect on restoration of CaMKII activity: Neither increase of Memantine from 10 μM to 30 μM nor duration of the treatment from 24 h to 48 h resulted in any significant additional effect
[1]; OA-treated slices
  concentration giving full effect on restoration of CaMKII activity: 10 µM
  lowest concentration at which restoration of CaMKII activity was observed: 1 µM
[1]; after 0.3 mM glutamate, fresh medium with or without 10 μM Memantine or 15 μM MK801
  CaMKII activity after replacement of glutamate: restored the CaMKII activity to normal level
[1]; no OA
  effect on CaMKII activity in control (untreated) slices: no significant effect
[2]; [7]
  restoration of OA-induced tau phosphorylation at Ser-214: restored the tau phosphorylation at Ser-262 and Ser-214 to normal levels
  restoration of OA-induced tau phosphorylation at Ser-262: restored the tau phosphorylation at Ser-262 and Ser-214 to normal levels; also recorded: practically completely restored
[2]; 5 μM compound, OA-treated
  restoration of phosphorylation of tau at Ser-262: restoration
[2]; 2-10 μM tested, 24 h
  concentration of maximal effect on tau phosphorylation at Ser-262: 5 µM
[2]; 2-10 μM tested, radioimmuno-dot-blot
  lowest concentration inhibiting OA-induced tau phosphorylation at Ser-262: 2 µM
[2]; [8]
  effect on OA-induced phosphorylation of tau at Ser-422: no effect
[2]; antibody 134d, radioimmuno-dot-blots
  effect on level of total tau: no detectable effect
[3]; [6]
  restoration of OA-induced change in PKA activity: restored the OA-induced changes in the activities of PP-2A, CaMKII and PKA to normal levels
[3]; 100 nM OA, p<0.05
  concentration (as low as) restoring OA-induced increase in PKA activity to normal level: 1 µM
[3]; no OA
  effect on PKA activity in control/untreated cultures: no significant effect
[4]; then 10 μM Memantine 24 h
  neurofilament (pNF-H/M, SMI 31) immunostaining: reduced these changes; also recorded: partially reversed
[5]; [8]
  effect on GSK-3 activity: neither OA nor Memantine had any significant effect; also recorded: no significant effect

## C=C1[C@@H](O)[C@@H]2O[C@]3(CC[C@H](/C=C/[C@@H](C)[C@@H]4CC(C)=C[C@@]5(O[C@H](C[C@@](C)(O)C(=O)O)CC[C@H]5O)O4)O3)CC[C@H]2O[C@@H]1[C@@H](O)C[C@H](C)[C@H]1O[C@@]2(CCCCO2)CC[C@H]1C [OA, Okadaic Acid]
[1]; 10 nM OA, 24 h
  increase in CaMKII activity: ~20%
[1]; 100 nM OA, 24 h
  CaMKII activity as % of control: 180%
  increase in CaMKII activity: ~70%
[1]; 1,000 nM OA, 24 h
  increase in CaMKII activity: ~140%
[1]; 1000 nM OA, 24 h
  CaMKII activity as % of control: 240%
[1]; OA-treated slice cultures
  change in CaMKII activity: marked increase
[2]; OA-treated cultures
  phosphorylation of tau at Ser-214: modest increase
  phosphorylation of tau at Ser-262: marked increase; also recorded: dramatic increase
  phosphorylation of tau at Ser-422: marked increase; also recorded: dramatic increase
[3]; 100 nM OA, 24 h or 48 h
  increase in PKA activity: ~20%
[3]; OA-treated slice cultures
  change in PKA activity: no significant changes; also recorded: no significant alteration
[4]; then medium 24 h
  neurofilament (pNF-H/M, SMI 31) immunostaining: immunostaining was increased; also recorded: an increase in phosphorylation and accumulation of NF-H/M
[5]; OA-treated slice cultures
  change in GSK-3 activity: no significant change; also recorded: neither OA nor Memantine had any significant effect; also recorded: no significant alteration
